pKi: −log10 of the molar value. Structures can show the parent of a compound that is named as a salt. Where two headings read alike, the source gives them in different places.
How the values were obtained:
[1] = target: T1, α2 -Adrenoceptor (Homo sapiens, UniProt P08913); assay: α2-Adrenoceptor Binding ([3H] Rauwolscine, human platelet membranes)
T1 construct: Human platelet membranes; from tissue; host or cells: human platelet membranes
T1 sequence (P08913 1-465): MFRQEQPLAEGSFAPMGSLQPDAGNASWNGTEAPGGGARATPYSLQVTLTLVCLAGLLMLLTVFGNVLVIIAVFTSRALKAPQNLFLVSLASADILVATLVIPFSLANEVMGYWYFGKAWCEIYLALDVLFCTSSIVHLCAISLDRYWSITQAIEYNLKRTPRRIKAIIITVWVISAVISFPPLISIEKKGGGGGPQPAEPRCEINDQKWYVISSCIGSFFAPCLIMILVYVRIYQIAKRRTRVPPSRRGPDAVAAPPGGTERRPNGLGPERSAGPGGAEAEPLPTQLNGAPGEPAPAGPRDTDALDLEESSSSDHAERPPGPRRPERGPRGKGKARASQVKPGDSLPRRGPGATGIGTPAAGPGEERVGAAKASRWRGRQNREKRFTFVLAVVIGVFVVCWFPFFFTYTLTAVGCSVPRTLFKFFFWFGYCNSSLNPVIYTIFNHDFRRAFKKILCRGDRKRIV
Protocol: (B) α2 -Adrenoceptor Binding
Human platelet membranes were incubated with [^3 H] Rauwolscine (0.5-1.0 nM) for 30 minutes at 30° C. with varying concentrates of the drug (0.1-10,000 nM). The binding assay was stopped by filtering and rinsing on GF/B glass fibre filters.

[2] = tested on: blood glucose; assay: Reversal of Adrenaline-Exacerbated Glucose Intolerance in Mice; format: in vivo, CFLP female mice; settings: Mus musculus, 2 h, oral gavage, glucose 1 g/kg and adrenaline 300 μg/kg s.c. 30 min later, 0-120 min, vs water dosed control, read-out: % Reduction in area under Blood Glucose curve; for inhibition in vivo at 20 µmol/kg: 20 μmol/kg
Protocol: (A) Reversal of Adrenaline-Exacerbated Glucose Intolerance in Mice
CFLP female mice of about 25 g were fasted for 24 hours prior to receiving water (10 ml/kg) or compounds by oral gavage. Thirty minutes later, glucose (1 g/kg) and adrenaline (300 μg/kg) were injected subcutaneously. Blood samples for glucose analysis were taken serially from the tail of each mouse at 0, 30, 60 90 and 120 minutes after dosing glucose and the results are expressed below as the percentage reduction in the area under the blood glucose curve; the compound treated groups being compared to the water dosed control group. Six mice were used in each treatment group.

[3] = human platelet membranes, [3H] Rauwolscine 0.5-1.0 nM, 30 minutes at 30° C., read-out: Binding Affinity Ki

| SMILES | pKi [1, 3] | inhibition in vivo at 20 µmol/kg [2] [%] | pKi [1] | inhibition in vivo at 5 µmol/kg ([2]; 5 μmol/kg) [%] | inhibition in vivo at 10 µmol/kg ([2]; 10 μmol/kg) [%] |
| --- | --- | --- | --- | --- | --- |
| CC1c2ccccc2CN1CC1=NCCN1 (stereo not drawn) [Example 1, 2-[2H-(1-Methyl-1,3-dihydroisoindole)methyl]-4,5-dihydroimidazole] | – | 34 | 8.77 | – | – |
| CC1c2ccc(F)cc2CN1CC1=NCCN1 (stereo not drawn) [Example 5, 2[2H-(5-Fluoro-1-methyl-1,3-dihydroisoindole)methyl]-4,5-dihydroimidazole] | 9.10 | – | – | 20 | – |
| CC(C)C1c2ccccc2CN1CC1=NCCN1 (stereo not drawn) [Example 10, 2-(2H-[1-(1-Methylethyl)-1,3-dihydroisoindole]methyl)-4,5-dihydroimidazole dihydrochloride hemihydrate] | 7.47 | – | – | – | – |
| c1ccc(CC2c3ccccc3CN2CC2=NCCN2)cc1 (stereo not drawn) [Example 13, 2-[2H-(1-Benzyl-1,3-dihydroisoindole)methyl]-4,5-dihydroimidazole] | 7.40 | 16 | – | – | – |
| COc1ccc(C2c3ccccc3CN2CC2=NCCN2)cc1 (stereo not drawn) [Example 12, 2-[2H-(1-(4-Methoxyphenyl)-1,3-dihydroisoindole)methyl]-4,5-dihydroimidazole] | 8.70 | 34 | – | – | – |
| CC1c2ccc(Cl)cc2CN1CC1=NCCN1 (stereo not drawn) [Example 3, 2-[2H-(5-Chloro-1-methyl-1,3-dihydroisoindole)methyl]-4,5-dihydroimidazole dihydrochloride] | 8.47 | – | – | – | 41 |
| CC1c2cc(Cl)ccc2CN1CC1=NCCN1 (stereo not drawn) [Example 4, 2-[2H-(6-Chloro-1-methyl-1,3-dihydroisoindole)methyl]-4,5-dihydroimidazole] | 8.19 | 27 | – | – | – |
| CCC1c2ccccc2CN1CC1=NCCN1 (stereo not drawn) [Example 2, 2-[2H-(1-Ethyl-1,3-dihydroisoindole)methyl]-4,5-dihydroimidazole dihydrochloride] | 8.39 | 27 | – | – | – |

The next lines start with results.

| pKi [1, 3] | SMILES | inhibition in vivo at 20 µmol/kg [2] [%] | pKi [1] | inhibition in vivo at 5 µmol/kg ([2]; 5 μmol/kg) [%] | inhibition in vivo at 10 µmol/kg ([2]; 10 μmol/kg) [%] |
| --- | --- | --- | --- | --- | --- |
| 8.74 | Clc1cccc(C2c3ccccc3CN2CC2=NCCN2)c1 (stereo not drawn) [Example 7] | 22 | – | – | – |
| 7.60 | Cc1ccc(C2c3ccccc3CN2CC2=NCCN2)cc1 (stereo not drawn) [Example 11, 2-[2H-(1-(4-Methylphenyl)-1,3-dihydroisoindole)methyl]-4,5-dihydroimidazole] | – | – | – | – |
| 8.16 | c1ccc(C2c3ccccc3CN2CC2=NCCN2)cc1 (stereo not drawn) [Example 9, 2-[2H-(1-Phenyl-1,3-dihydroisoindole)methyl]-4,5-dihydroimidazole] | 31 | – | – | – |
| 8.57 | Fc1ccc(C2c3ccccc3CN2CC2=NCCN2)cc1 (stereo not drawn) [Example 8, 2-[2H-(1-(4-Fluorophenyl)-1,3-dihydroisoindole)methyl]-4,5-dihydroimidazole] | 21 | – | – | – |
| 8.44 | Clc1ccc(C2c3ccccc3CN2CC2=NCCN2)cc1 (stereo not drawn) [Example 6, 2-[2H-(1-(4-Chlorophenyl)-1,3-dihydroisoindole)methyl]-4,5-dihydroimidazole] | 15 | – | – | – |

— patent US4918083A, “4,5 Dihydroimidazole compounds which have useful pharmaceutical utility” (Beecham Group p.l.c., priority 1986, dated 1990)
